Assay results as given in patent US10391150B2, “Treatments for migraine and related disorders” (The University of Chicago, priority 2011, dated 2019).

B1: Interferon-gamma (protein, listed as Homo sapiens)
chain: MKYTSYILAFQLCIVLGSLGCYCQDPYVKEAENLKKYFNAGHSDVADNGTLFLGILKNWKEESDRKIMQSQIVSFYFKLFKNFKDDQSIQKSVETIKEDMNVKFFNSNKKKRDDFEKLTNYSVTDLNVQRKAIHELIQVMAELSPAAKTGKRKRSQMLFRGRRASQ

Legend:
[1] = test system: SD in neocortex and hippocampus of anesthetized rat; assay: SD threshold in vivo (0.5 M KCl injection) after nasal administration; settings: control 1-8 nL
Protocol: Images show experimental setups for nasal administration and testing. (FIG. 7A) Nasal injection setup showing heat lamp and thermo-regulator that maintains temperature at 37° C. plus nose cone used to deliver isoflurane anesthesia. (FIG. 7B) Operator is shown administering nasal IGF-1 solution, which is performed in a fume hood to adequately vent isoflurane from nose cone. (FIG. 7C) Image illustrates standard electrophysiology setup. Anesthetized animal is placed into a standard electrophysiology holder and anesthesia maintained by a nose cone delivering 3% isoflurane in oxygen. Arterial oxygen saturation is monitored with a pulse-oximeter. Animals are warmed to 37.5° C. with a heating plate. SD is induced by progressively injecting larger volumes of 0.5 M KCl from an 8 μm diameter microelectrode. SD is registered with a second microelectrode used for DC recordings placed more caudally. After SD is evoked by a given injection pulse, the stimulating electrode is withdrawn and a volume re-injected under mineral oil. The diameter of the resultant KCl injection sphere is then measured off line using a compound microscope and the injection volume calculated. For example, in the above whole animal experiments it took 1-8 nL of 0.5 M KCl to evoke SD in control brain regions while after acute IGF-1 this amount rose to 67-109 nL. A day after IGF-1 treatment the volume needed to evoked SD was 34-48 nL. IFN-γ treatment required 338 nL of 0.5 M KCl a day after treatment and IL-11 required 67-200 nL.
Rats (FIGS. 6 and 7) are anesthetized with inhalational isoflurane and kept warm. While anesthetized, animals are placed in a supine position and 50 μL of sterile drug (i.e., IFN-γ, IGF-1, or IL-11) solution [or sterile saline vehicle (sham control)] is administered nasally by delivering 5 μL alternating between the left and right naris every 2 min over 20 minutes. Animals are given nasal drug treatments daily at the same time for 7 days before subsequent experiments. Doses for all 3 agents begin with the effective doses noted in our work using slice cultures (1×), then include others (0.1× and 10×). The inventors base this strategy on the fact that the effective culture dose for IGF-1 (40 ng/mL) closely approximates the dose used in vivo (143 μg/kg).
This approach was applied to measurement of SD threshold (FIG. 10) after treatment (FIG. 7) with nasally administered IGF-1 (150 μg), IL-11 (1 μg), IFN-γ (50,000 units), and insulin (20 μg). […] Resistance against SD was always greater in hippocampus compared to neocortex (n=4, controls; n=3, acutely after IGF-1; n=6, one day after IGF-1; n=6, one day after IL-11; n=6, one day after IFN-γ; and n=3, acutely after insulin).
Nasal administration followed by SD threshold evaluation in vivo. Vehicle or human recombinant IGF-1 (150 μg) is administered intranasally. SD threshold is established by injection of nanoliter volumes of 0.5 M KCl into neocortex or hippocampus (−2.0 mm from Bregma and 1.5 mm lateral from midline at either 750 μm or 2,800 μm into brain, respectively) using a thin-walled glass pipette and Picospritzer. Once a threshold is established, it is confirmed two more times, with an exemplary record from a vehicle-sham animal shown below. […] The diameter of the injected sphere is then measured using a compound microscope and used to calculate the injected volume, then moles of potassium. […]

[2] = test system: OS from cLTP in hippocampal slice cultures; assay: OS / reactive oxygen species generated from chemical long-term potentiation (cLTP) in slice cultures; format: cell-based, rat; settings: 3 days treatment (IFN-γ 500 U/mL; IL-11; IGF-1), compared to shams
Protocol: This beneficial effect of low-level IFN-γ is supported by results from rats. In rats, enrichment, which occurs with hippocampal learning, led to a significant elevation in hippocampal T-cells, IFN-γ and MBP.
Experiments were performed in rat hippocampal slices cultures and SD induced as previously described (Pusic et al., 2011). Results were derived from n≥3-6/group. […] This is consistent with the neural activity increase seen after SD, which mimics the hyperexcitability evident in migraine patients.
This prompted the inventors to examine whether insulin could reduce SD susceptibility by increasing CA3 pyramidal neuron bursting. The inventors induced SD trans-synaptically in rat HSC using electrical stimuli (100 μs pulses @ 10 Hz for 1 s) ranging from 1 to 10,000 nC in order to determine SD threshold in sham and experimental groups (Pusic et al., 2011). Results were based on n≥3-6/group. […] This insulin dose approximates the pharmacological levels seen in humans treated with nasal insulin. […] The inventors hypothesized that the effect of insulin occurred through IGF-1 receptor cross-talk.
The inventors use a well-accepted method for inducing cLTP in slice cultures (Kraig et al., 2010; Otmakhov et al., 2004a; Otmakhov et al., 2004b; Kopec et al., 2006). The protocol consists of raising cAMP levels and increasing synaptic activity using rolipram/forskolin applied in a Mg^2+-free Ringer's solution (36° C.) for 5 min, then allowing slices to recover in normal media.

[3] = a day after nasal treatment (IGF-1 150 μg; IL-11 1 μg; IFN-γ 50,000 units)

Molecule | volume of 0.5 M KCl needed to evoke SD [1, 3] [nL] | volume of 0.5 M KCl needed to evoke SD ([1]; acutely after nasal treatment (IGF-1 150 μg; insulin 20 μg)) [nL] | OS / reactive oxygen species generated from cLTP [2]
Insulin-like growth factor 1 [IGF-1] | 34 to 48 | 67 to 109 | significant reduction in OS from cLTP
B1 | 338 |  | significantly reduced reactive oxygen species
